# Laboratory results published in article PMC9763021, “Comprehensive Assessment of Biomolecular Interactions of Morpholine-Based Mixed Ligand Cu(II) and Zn(II) Complexes of 2,2′-Bipyridine as Potential Anticancer and SARS-CoV-2 Agents: A Synergistic Experimental and Structure-Based Virtual Screening” (Bioinorganic Chemistry and Applications, 2022).
# Assays:
# Mucor indicus = test: Agar disc diffusion, strain J; assay type: cell-based; set-up: (inhibition %): concentration or dose not given beside the values; details: for diameter of the clear zone inhibition: control = 6 mm
# Description: (§1) In-vitro antimicrobial properties were evaluated for all samples by the agar disc diffusion method towards different fungal and bacterial strains. Additionally, the reported inhibition zone values were comparatively analyzed with the standard antifungal drugs ketoconazole and amphotericin B as well as the standard antibiotic medications streptomycin and amikacin.
# (§2) The current research has a curious focus on the in vitro antimicrobial properties of biological systems because these studies are crucial for developing effective antibacterial and antifungal medications. […] It can also be spelled out based on the chelation theory proposed by Overtone and Tweedy. Chelation theory points out that the partial exchanging of the positive charge of the metal center with donor moieties, and overlap of the ligand orbitals will reduce the greater degree of the metal ion's polarity, which ultimately rises the delocalization of π and d electrons over the full chelated ring system. By raising the size of the metal ion due to the retarding of polarization, chelation may also enhance the complexes' lipophilic characteristics, which further stimulate the lipid membrane permeability and break down the bacteria' enzymes responsible for cell wall formation, therefore slowing down the regular cell processes. By preventing the production of cell walls/proteins/DNA, including by obstructing folate metabolism and the cytoplasmic membrane, antimicrobial drugs frequently either fully eliminate microbes or only prevent their cell growth. Additionally, the samples' mode of action may be employed in disrupting the cell's respiration process by forming an H-bond during the morpholine-fused iminic group coordinated with the active metal center of its components, inhibiting proliferation of the cell. […] The difference in the antimicrobial efficacy of some of the compounds towards various microorganisms influences on the impermeability of the cells of the germs or the diversity of ribosomes of the microbes. The % of the inhibition of all substances is estimated from (45) (Table 9).
# (§3) (A, B, C, D, and E are represented as gram negative bacteria species Escherichia coli, Salmonella enteric serovar typhi, Salmonella enteric serovar typhi, Pseudomonas aeruginosa, and Shigella flexneri, respectively. F & G are denoted as gram positive bacteria species Staphylococcus aureus and Bacillus cereus. H, I, and J are represented as fungal strains Aspergillus niger, Candida albicans, and Mucor indicus. Standard drugs for bacterial strains: Amikacin & Streptomycin Standard drugs for fungal strains: Ketoconazole and Amphotericin B. [Control (DMSO) = 6 mm].(44) Inhibition %=T–C/T×100, where T and C are represented as the diameter of microbial growth of the sample plates and the control plate (6 mm), respectively. Error limits ±2.5–5.0% (P ≤ 0.05).
# Aspergillus niger = test: Agar disc diffusion, strain H; assay type: cell-based; set-up: (inhibition %): concentration or dose not given beside the values; details: for diameter of the clear zone inhibition: control = 6 mm
# Description: as §1, §2, §3
# Candida albicans = test: Agar disc diffusion, strain I; assay type: cell-based; set-up: (inhibition %): concentration or dose not given beside the values; details: for diameter of the clear zone inhibition: control = 6 mm
# Description: as §1, §2, §3
# [1] = Superoxide scavenging assay; assay type: biochemical; details: for % Inhibition superoxide: 590 nm
# Description: (§4) All samples were evaluated for their scavenging ability with the help of UV-visible spectrophotometer at different concentrations of 40, 80, 120, 160, 200, and 240 μM [6, 28]. While performing the antioxidant properties for the DPPH, hydroxyl, superoxide, and nitric oxide radical scavenging, the absorbance at 517, 230, 590, and 546 nm, respectively, was closely observed. In addition, the observed IC50 values of all samples were compared with ascorbic acid.
# A vital enzyme catalyst in the body's defence against free radicals, superoxide dismutase (SOD) quickly and efficiently reduces toxicity and cellular damage by exchanging superoxide with water (or) harmless molecules. The % of inhibition for all substances was analyzed at 590 nm. The outcomes were obtained in the subsequent order: (ascorbic acid) 84.85 > (1a) 67.17 > (2a) 58.18 > (HL) 50.42.
# [2] = DPPH radical scavenging assay; assay type: biochemical; details: for % Inhibition DPPH: 517 nm
# Description: as §4
# The colour of an aqueous or methanol solution changes from deep purple to pale yellow when DPPH, a stable chromogen free radical, combines with an antioxidant molecule, which means that DPPH quickly absorbs the hydrogen or electrons from the donor groups. In this case, for the baseline correction, a blank DPPH solution in the absence of a test compound was employed, and 517 nm (ε = 8320 M^−1·cm^−1) was attained to have a significant absorption maximum. […] The DPPH radicals are reduced by an antioxidant compound (AH), in which the reduction of electronic absorbance for each compound was vigilantly noted at 517 nm. The capacity to block radicals improves as the sample concentration increases. The assessed percentage of maximum inhibition for all substances was found at 240 μM in the subsequent order: (ascorbic acid) (85.65) > (1a) 68.64 > (2a) 59.55 > (HL) 52.45. […] Moreover, the % of scavenging or maximum inhibition for all substances is estimated with the aid of equation (44) (Table S14).(43) Scavanging%=A0−AS/A0×100
# [3] = Nitric oxide scavenging assay; assay type: biochemical; details: for % Inhibition nitric oxide: 546 nm
# Description: as §4
# The diffusible nitric oxide free radical is a crucial chemical mediator, which assists in overcoming diverse chronological human diseases. The NO free radical scavenging potential for all test samples was also carried out at 546 nm. It monitored the alterations in electronic absorption intensity of the nitric oxide radical inhibition outcome concerning the sample concentrations. When the test sample concentration rises, the nitric oxide free inhibition effectiveness also increases. The measured % of nitric oxide radical scavenging capability for all samples at 240 μM was obtained in the subsequent order (ascorbic acid) 72.73 > (1a) 65.47 > (2a) 58.43 > (HL) 51.62.
# [4] = Hydroxyl radical scavenging assay; assay type: biochemical; details: for % Inhibition hydroxyl radical: 230 nm
# Description: as §4
# Hydrogen peroxide receives electrons from antioxidant molecules and then neutralizes them into a water molecule. ^●OH inhibition capability was determined from the % of inhibition for all test substances at 230 nm.
# Escherichia coli = test: Agar disc diffusion, strain A; assay type: cell-based; set-up: (inhibition %): concentration or dose not given beside the values
# Description: as §1, §2, §3
# Bacillus cereus = test: Agar disc diffusion, strain G; assay type: cell-based; set-up: (inhibition %): concentration or dose not given beside the values
# Description: as §1, §2, §3
# Shigella flexneri = test: Agar disc diffusion, strain E; assay type: cell-based; set-up: (inhibition %): concentration or dose not given beside the values
# Description: as §1, §2, §3
# [5] = tested on: Salmonella enteric serovar typhi; test: Agar disc diffusion, strain B; assay type: cell-based
# Description: as §1, §2, §3
# [6] = tested on: Salmonella enteric serovar typhi; test: Agar disc diffusion, strain C; assay type: cell-based
# Description: as §1, §2, §3
# Staphylococcus aureus = test: Agar disc diffusion, strain F; assay type: cell-based; set-up: (inhibition %): concentration or dose not given beside the values
# Description: as §1, §2, §3
# Pseudomonas aeruginosa = test: Agar disc diffusion, strain D; assay type: cell-based; set-up: (inhibition %): concentration or dose not given beside the values
# Description: as §1, §2, §3
# [7] = tested on: calf thymus deoxyribonucleic acid; test: DNA binding by viscometric (hydrodynamic) technique
# Description: The titrations were performed for all compounds including EB (control) at 20, 40, 60, 80, and 100 μM concentrations. In the Ostwald viscometer, these substances were also separately treated with the calf thymus deoxyribonucleic acid solution (100 μM).
# Hydrodynamic findings can be utilized to assess the alteration of DNA length and afford details on the binding tendency between small molecules and biomolecules. As a result of their sensitivity to DNA contour length changes, which implies that the average distance between each monomer (cl = 0.338 nm/bp for B-form DNA), the DNA binding properties of all test compounds were further validated by this method. According to the Lerman concept, interactions between small molecules and deoxyribonucleic acid via covalent and noncovalent bindings are often possible. When a chemical substance interacts with the deoxyribonucleic acid double helix, the contour length of DNA increases via intercalation and leads to an increase in the absolute viscosity. Meanwhile, if DNA viscosity is not affected during interactions, which leads to the responsible for the major/minor groove binding due to H-bond/Van der Waals interactions, electrostatic, partial, or nonclassical interaction modes. Therefore, analyzing the binding modes provides additional support for the findings as well as a crucial aspect of the conventional intercalation concept. In this case, it was observed that the absolute viscosity increased consistently along with the concentration of each substance at the fixed DNA concentration. The DNA must extend to facilitate the binding of ligands, which causes a considerable rise in DNA viscosity while small molecules intercalate into the DNA helix. According to equation (12), an increase in relative viscosity denotes an intercalation-induced lengthening of the deoxyribonucleic acid base pair. While adhering to the principle of excluding the nearest neighbors, intercalation entails inserting a planar molecule into a DNA base pair without rupturing the hydrogen bonds that hold the base pairs together. This causes a diminution in the DNA helical twist and an extension of the DNA. Moreover, a molecule can be presumed to bind to deoxyribonucleic acid by intercalation between base pairs if it causes lengthening and unwinding of the deoxyribonucleic acid base pairs. In this case, the relative viscosity of DNA gradually increases, while the […]. Moreover, the affinity interactions and their slope values were observed from the relative specific viscosity (η⁄η0)^1/3 plotted straight line contrasting [Compound]/[DNA], and absolute specific viscosity of deoxyribonucleic acid in the absence or presence of samples was evaluated using equation (12) (Table 3). […] The evaluated slope findings were in the subsequent sequence: (EB) 1.215 > (1a) 0.915 > (2a) 0.630 > (HL) 0.490 (Figure S21 and Table 3). […] Due to the existence of the 2,2′-bipyridine and morpholine-fused aromatic planar systems, compounds can interact with deoxyribonucleic acid robustly via intercalation. The outcomes were excellent in accordance with the observed outcomes of absorption spectral properties.(11) η/η0^1/3=tcomplex−t0/t0/tDNA−t0/t0, where η and η0 are represented as specific viscosity of DNA in the presence complex and specific viscosity of DNA alone, and t0, tDNA, and tcomplex are represented as the average flow time of the Tris-HCl buffer solution, the average flow time of DNA alone solution, and the average flow time of DNA interacted with the samples, respectively. Error limit is ±2.5% (P < 0.025).
smiles,measurement,setting,value
"C[C@@H]1[C@H](O)[C@@H](C)/C=C/C=C/C=C/C=C/C=C/C=C/C=C/[C@H](O[C@@H]2O[C@H](C)[C@@H](O)[C@H](N)[C@@H]2O)C[C@@H]2O[C@](O)(C[C@@H](O)C[C@@H](O)[C@H](O)CC[C@@H](O)C[C@@H](O)CC(=O)O[C@H]1C)C[C@H](O)[C@H]2C(=O)O [Amphotericin B, reference compound]",(inhibition %),Mucor indicus,65%
same,diameter of the clear zone inhibition,Mucor indicus,17 mm
same,(inhibition %),Aspergillus niger,60%
same,diameter of the clear zone inhibition,Aspergillus niger,15 mm
same,(inhibition %),Candida albicans,65%
same,diameter of the clear zone inhibition,Candida albicans,17 mm
"O=C1O[C@H]([C@@H](O)CO)C(O)=C1O [Ascorbic acid, reference compound]",IC50,[1],120 µM
same,% Inhibition superoxide,[1]; 40 µM,29.64%
same,% Inhibition superoxide,[1]; 80 µM,41.72%
same,% Inhibition superoxide,[1]; 120 µM,55.63%
same,% Inhibition superoxide,[1]; 160 µM,66.75%
same,% Inhibition superoxide,[1]; 200 µM,72.55%
same,% Inhibition superoxide,[1]; 240 µM,84.85%
same,IC50,[2],80 µM
same,% Inhibition DPPH,[2]; 40 µM,41.63%
same,% Inhibition DPPH,[2]; 80 µM,53.74%
same,% Inhibition DPPH,[2]; 120 µM,58.95%
same,% Inhibition DPPH,[2]; 160 µM,70.86%
same,% Inhibition DPPH,[2]; 200 µM,82.75%
same,% Inhibition DPPH,[2]; 240 µM,85.65%
same,IC50,[3],160 µM
same,% Inhibition nitric oxide,[3]; 40 µM,28.55%
same,% Inhibition nitric oxide,[3]; 80 µM,35.75%
same,% Inhibition nitric oxide,[3]; 120 µM,43.65%
same,% Inhibition nitric oxide,[3]; 160 µM,52.68%
same,% Inhibition nitric oxide,[3]; 200 µM,63.72%
same,% Inhibition nitric oxide,[3]; 240 µM,72.73%
same,IC50,[4],160 µM
same,% Inhibition hydroxyl radical,[4]; 40 µM,20.73%
same,% Inhibition hydroxyl radical,[4]; 80 µM,36.46%
same,% Inhibition hydroxyl radical,[4]; 120 µM,47.87%
same,% Inhibition hydroxyl radical,[4]; 160 µM,59.65%
same,% Inhibition hydroxyl radical,[4]; 200 µM,65.64%
same,% Inhibition hydroxyl radical,[4]; 240 µM,78.83%
"[H]/N=C(/N)N[C@H]1[C@H](O)[C@@H](O)[C@H](O[C@@H]2O[C@@H](C)[C@](O)(C=O)[C@H]2O[C@@H]2O[C@@H](CO)[C@H](O)[C@@H](O)[C@@H]2NC)[C@@H](N/C(N)=N\[H])[C@@H]1O [Streptomycin, reference compound]",(inhibition %),Escherichia coli; (T–C)/T×100,75%
same,diameter of the clear zone inhibition,Escherichia coli; control (DMSO) = 6 mm,24 mm
same,(inhibition %),Bacillus cereus,71%
same,diameter of the clear zone inhibition,Bacillus cereus; control = 6 mm,21 mm
same,(inhibition %),Shigella flexneri,76%
same,diameter of the clear zone inhibition,Shigella flexneri; control = 6 mm,25 mm
same,(inhibition %),[5],77%
same,diameter of the clear zone inhibition,[5]; control = 6 mm,26 mm
same,(inhibition %),[6],75%
same,diameter of the clear zone inhibition,[6]; control = 6 mm,24 mm
same,(inhibition %),Staphylococcus aureus,71%
same,diameter of the clear zone inhibition,Staphylococcus aureus; control = 6 mm,21 mm
same,(inhibition %),Pseudomonas aeruginosa,71%
same,diameter of the clear zone inhibition,Pseudomonas aeruginosa; control = 6 mm,21 mm
"CC(=O)N1CCN(c2ccc(OCC3COC(Cn4ccnc4)(c4ccc(Cl)cc4Cl)O3)cc2)CC1 (stereo not drawn) [Ketoconazole, reference compound]",(inhibition %),Mucor indicus,67%
same,diameter of the clear zone inhibition,Mucor indicus,18 mm
same,(inhibition %),Aspergillus niger,63%
same,diameter of the clear zone inhibition,Aspergillus niger,16 mm
same,(inhibition %),Candida albicans,67%
same,diameter of the clear zone inhibition,Candida albicans,18 mm
"CC[n+]1c(-c2ccccc2)c2cc(N)ccc2c2ccc(N)cc21 [EB (control), Ethidium bromide, reference compound]",Slope of (η/η0)^1/3 vs [Compound]/[DNA],[7],1.215
same,Relative specific viscosity (η/η0)^1/3,[7]; [complex]/[DNA] = 0.2,1.01
same,Relative specific viscosity (η/η0)^1/3,[7]; [complex]/[DNA] = 0.4,1.35
same,Relative specific viscosity (η/η0)^1/3,[7]; [complex]/[DNA] = 0.6,1.63
same,Relative specific viscosity (η/η0)^1/3,[7]; [complex]/[DNA] = 0.8,1.82
same,Relative specific viscosity (η/η0)^1/3,[7]; [complex]/[DNA] = 1.0,1.99
